Values quoted from earlier work, collected in US10183028B2, “Enrichment method of ergosterol peroxide from sporoderm-broken Ganoderma lucidum spore powder” (Guangzhou Polysarm Bioscience Corp., priority 2015, dated 2019).

What was measured:
Hela cancer cells = conditions: Chinese application 201410311586.3
[1] = tested on: human breast cancer and liver cancer; conditions: Chinese application 200610126091.9
[2] = tested on: malignant breast cancer cells (MT-1); conditions: Chinese application 201210233192.1
[3] = tested on: lymphoma cancer cells (Jurkat); conditions: Chinese application 201210233192.1
brain tumor cells (U87) = conditions: Chinese application 201210233192.1
[4] = tested on: drug-resistant brain tumor stem cells; conditions: Chinese application 201210233192.1
fungal = conditions: Chinese application 200810119948.3
formation of melanin = conditions: Chinese application 01817014.5
pieris rapae = conditions: Chinese application 01817014.5
prodenia litura = conditions: Chinese application 01817014.5
aphid = conditions: Chinese application 01817014.5

## CC(C)[C@@H](C)C=C[C@@H](C)[C@H]1CC[C@@H]2[C@]1(C)CC[C@H]1[C@]23C=C[C@]2(C[C@@H](O)CC[C@]12C)OO3 [Ergosterol peroxide, 5α,8α-Epidioxyergosta-6,22-dien-3β-ol]
Hela cancer cells
  synergy with taxol in killing or damaging Hela cancer cells: synergy with taxol
[1]
  harmful effects on immune organs and weight: no harmful effects
[1]; human breast cancer and liver cancer
  anti-tumor pharmacological activity: significant anti-tumor
[2]
  inhibitory effect on malignant breast cancer cells (MT-1): significant inhibitory effect
[3]
  inhibitory effect on lymphoma cancer cells (Jurkat): significant inhibitory effect
Brain tumor cells (U87)
  inhibitory effect on brain tumor cells (U87): significant inhibitory effect
[4]
  killing of drug-resistant brain tumor stem cells: kills
fungal
  antifungal bioactivity: remarkable antifungal bioactivity
Formation of melanin
  inhibitory effects on the formation of melanin: strong inhibitory effects
Pieris rapae
  poisoning effects on agricultural pests: poisoning effects
Prodenia litura
  poisoning effects on agricultural pests: poisoning effects
aphid
  poisoning effects on agricultural pests: poisoning effects
